Tests used:
[1] = biological target: T1, CCR1 (Homo sapiens, UniProt P32246); assay: Chemotaxis inhibition assay for receptor specificity, HEK293-CCR1; assay type: cell-based; conditions: 0.2, 1, 5, 25 μM, 30 min pretreatment
T1 construct: expressed in transfected cells; host or cells: HEK293; plasmid gift of Dr. Philip M. Murphy (NIAID, NIH)
T1 sequence (P32246 1-355): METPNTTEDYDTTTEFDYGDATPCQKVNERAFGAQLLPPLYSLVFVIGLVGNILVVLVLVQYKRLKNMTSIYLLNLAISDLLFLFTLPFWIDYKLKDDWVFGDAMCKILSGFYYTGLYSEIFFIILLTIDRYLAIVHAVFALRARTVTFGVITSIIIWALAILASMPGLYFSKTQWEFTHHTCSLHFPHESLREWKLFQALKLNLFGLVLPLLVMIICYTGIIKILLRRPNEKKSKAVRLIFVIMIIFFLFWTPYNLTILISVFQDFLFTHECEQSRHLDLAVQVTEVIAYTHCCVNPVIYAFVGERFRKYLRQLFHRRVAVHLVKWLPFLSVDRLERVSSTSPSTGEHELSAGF
Procedure: (§1) HEK293 cells were transfected with different chemokine receptors. The corresponding chemokines of different receptors were placed in the lower chambers. The transfected cells were pretreated with different concentrations of Compound 8a or 1‰ DMSO for 30 min at a density of 1 × 10^6 cells/ml and added to the upper chambers, the final concentration of the compound is: 0.2 μM, 1 μM, 5 μM, and 25 μM, respectively.

[2] = biological target: T2, CXCR1 (Homo sapiens, UniProt P25024); assay: Chemotaxis inhibition assay for receptor specificity, HEK293-CXCR1; assay type: cell-based; conditions: 0.2, 1, 5, 25 μM, 30 min pretreatment
T2 construct: expressed in transfected cells; host or cells: HEK293; plasmid gift of Dr. Philip M. Murphy (NIAID, NIH)
T2 sequence (P25024 1-350): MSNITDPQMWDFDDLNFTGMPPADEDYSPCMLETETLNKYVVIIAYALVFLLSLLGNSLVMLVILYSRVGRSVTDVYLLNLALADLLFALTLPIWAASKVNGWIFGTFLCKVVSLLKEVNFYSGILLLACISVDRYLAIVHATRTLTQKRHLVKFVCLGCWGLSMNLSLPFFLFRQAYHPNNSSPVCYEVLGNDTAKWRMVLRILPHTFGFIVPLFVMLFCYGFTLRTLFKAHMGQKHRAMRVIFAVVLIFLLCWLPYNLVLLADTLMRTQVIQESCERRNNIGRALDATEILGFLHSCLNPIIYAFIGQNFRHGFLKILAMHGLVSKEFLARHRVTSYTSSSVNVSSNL
Procedure: as §1

[3] = biological target: T1, CCR1; assay: Chemotaxis assay for receptor specificity, HEK293-CCR1; assay type: cell-based; conditions: compound as chemoattractant in lower chamber, 0.2, 1, 5, 25 μM
Procedure: (§2) HEK293 cells were transfected with different chemokine receptors. Compound 8a with DMSO was diluted to 0.2 mM, 1 mM, 5 mM and 25 mM, and then we used RPMI 1640 medium containing 0.1% BSA for dilution. The final concentration is: 0.2 μM, 1 μM, 5 μM and 25 μM. DMSO was also diluted 1000-fold with 0.1% BSA RPMI 1640 medium. Chemokines was also diluted to an appropriate concentration. The dilutions of Compound 8a, 1‰ DMSO, the corresponding chemokines of different receptors and 0.1% BSA RPMI 1640 medium were placed in the lower chambers (27.5 μl/well). The transfected HEK293 cells were resuspended in the same medium at a density of 1 × 10^6 cells/ml and added to the upper chambers (55 μl/well).

[4] = biological target: T3, CCR7 (Homo sapiens, UniProt P32248); assay: Chemotaxis assay for receptor specificity, HEK293-CCR7; assay type: cell-based; conditions: compound as chemoattractant in lower chamber, 0.2, 1, 5, 25 μM
T3 construct: expressed in transfected cells; host or cells: HEK293, pcDB-CCR7 plasmid made in the authors' laboratory
T3 sequence (P32248 25-378): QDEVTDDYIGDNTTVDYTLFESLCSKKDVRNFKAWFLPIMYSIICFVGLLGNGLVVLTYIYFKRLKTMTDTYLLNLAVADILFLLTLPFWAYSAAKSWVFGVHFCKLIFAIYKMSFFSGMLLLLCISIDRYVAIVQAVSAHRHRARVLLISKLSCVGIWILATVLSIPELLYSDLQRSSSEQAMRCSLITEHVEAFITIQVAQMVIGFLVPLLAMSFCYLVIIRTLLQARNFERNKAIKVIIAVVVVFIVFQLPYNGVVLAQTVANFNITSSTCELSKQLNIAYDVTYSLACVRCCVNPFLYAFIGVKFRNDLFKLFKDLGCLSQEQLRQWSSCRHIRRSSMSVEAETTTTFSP
Procedure: as §2

[5] = system: HEK293-CCR4 cells; assay: MTT assay; assay type: cell-based; conditions: 1, 2, 4, 8, 16 μM, till the higher concentration (16 μM), 48 h
Procedure: pcDI-CCR4-transfected HEK293 cells, at the density of 800 cells /well, were plated overnight in 96-well plates. After plated overnight, different concentrations of compound 22 and compound 8a were added in cells and the final concentrations of these two compounds were: 1 μM, 2 μM, 4 μM, 8 μM and 16 μM. We set four wells for cells in each group which were incubated with each concentration of the compounds, and the cells were cultured for 48 h or 72 h. At 48 h or 72 h, 10 μl of the 5 mM MTT were added in cells and 100 μl of cell lysis buffer were added 4–6 h later. After added cell lysis buffer for an hour, microplate autoreader were used for measuring optical density (OD) of cells at 570 nm, and the ratio of OD in each group and that of DMSO group were valued as cell survival rates of each group.

[6] = system: OVA-induced asthmatic mice; assay: Lung histology (H&E) inflammation score in OVA-induced asthmatic mice; assay type: in vivo, BALB/c mice; conditions: 5 mg inhaled aerosol; vs OVA mice treated with vehicle
Procedure: Male BALB/c 6 week old mice were purchased from the Experimental Animal Center of Zhejiang University. All mice were raised in a specific pathogen-free animal facility. All animal experiments were carried out according to the guidelines for the care and use of laboratory animals and were approved by the ethics committee of Zhejiang University and Peking University, China.
Mice were sensitized and challenged with chicken egg OVA (sigma-Aldrich, St Louis, MO, USA) as described in details previously. Briefly, after sensitized by intraperitoneal injection of 100 μl (80 μg) OVA in 100 μl alum (Pierce, Rockford, IL, USA) on days 0 and 14, mice were exposure to 1% OVA aerosols for 40 min on days 24–26. Control mice were injected intraperitoneally with saline and exposed to saline aerosols.
Compound 8a was dissolved in saline with DMSO (0.5%). Half an hour before each OVA challenge, the groups of mice treated with various doses of compound 8a (0.2, 1, 5 mg) inhaled aerosolized compound 8a for 45 min on days 24–26. Compound 8a aerosols were produced by using a Plexiglas chamber and ultrasonic nebulizer. […]
After sacrificed, the lungs were fixed in formalin overnight. […] Inflammation was scored according to published guidelines. And PAS-stained goblet cells in airway epithelium were quantified as described previously.

- inhibition of chemotaxis of HEK293-CCR1 to its ligand [1]: few influence
- inhibition of chemotaxis of HEK293-CXCR1 to its ligand [2]: few influence
- chemotaxis effect of the compound on HEK293-CCR1 [3]: didn’t exert chemotaxis effects
- chemotaxis effect of the compound on HEK293-CCR7 [4]: didn’t exert chemotaxis effects
SMILES: O=C(C1CCCCN1)N1CCN(c2nc(Cl)cc(NCc3ccc(Cl)cc3Cl)n2)CC1 (stereo not drawn) [compound 8a, {4-[4-Chloro-6-(2,4-dichloro-benzylamino)-pyrimidin-2-yl]-piperazin-1-yl}-piperidin-2-yl-methanone]
- cytotoxicity (MTT) [5]: no obvious cytotoxicity
- peribronchial and perivascular inflammation (H&E histology) [6]: comparable inhibitory effect

— publication PMC5678437, “A new antagonist for CCR4 attenuates allergic lung inflammation in a mouse model of asthma” (Scientific Reports, 2017)
